The source made the active and inactive calls.
What follows are compounds tested against Dual specificity protein kinase CLK3 (Homo sapiens, UniProt P49761). Conditions: read-out: Kd apparent.
Format: subcellular, K-562, COLO 205, SK-N-BE(2) and MV-4-11, Cell lysate
Also: in the data inactive means no Kd found up to 30 µM.

| SMILES | Kd |
| --- | --- |
| O=C(Nc1cccc(Cl)c1)Nc1ncc(CCNc2ncnc3ccsc23)s1 [SNS-314] | > 30 µM (inactive) |

The compounds below were run against Cell division cycle 7-related protein kinase (Homo sapiens, UniProt O00311). Conditions: not given.
Chain of Cell division cycle 7-related protein kinase (O00311 whole entry): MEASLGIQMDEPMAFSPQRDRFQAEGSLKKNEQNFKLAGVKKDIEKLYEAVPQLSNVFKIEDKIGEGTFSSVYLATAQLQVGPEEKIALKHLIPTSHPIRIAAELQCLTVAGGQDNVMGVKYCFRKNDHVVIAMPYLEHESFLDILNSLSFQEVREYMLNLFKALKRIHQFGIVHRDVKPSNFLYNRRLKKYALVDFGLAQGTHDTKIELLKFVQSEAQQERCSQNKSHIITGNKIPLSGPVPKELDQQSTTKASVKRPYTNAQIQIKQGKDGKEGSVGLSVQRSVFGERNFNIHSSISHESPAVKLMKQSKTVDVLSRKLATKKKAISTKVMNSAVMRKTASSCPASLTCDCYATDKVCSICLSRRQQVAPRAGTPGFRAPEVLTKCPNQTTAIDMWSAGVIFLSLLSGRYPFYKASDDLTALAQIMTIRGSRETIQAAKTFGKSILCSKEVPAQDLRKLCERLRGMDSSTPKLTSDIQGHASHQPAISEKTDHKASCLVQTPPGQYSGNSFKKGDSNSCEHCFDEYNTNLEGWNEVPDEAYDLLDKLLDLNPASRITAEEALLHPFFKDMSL

| SMILES | Kd |
| --- | --- |
| Cc1cc(-c2cc(O)ccc2Cl)cc2nnc(Nc3ccc(OCCN4CCCC4)cc3)nc12 | > 30 µM (inactive) |
| CCN1CCN(Cc2ccc(-c3cc4c(N[C@H](C)c5ccccc5)ncnc4[nH]3)cc2)CC1 [AEE-788] | > 30 µM (inactive) |
| Cn1ncc(Cl)c1-c1cc(C(=O)N[C@H](CN)Cc2cccc(F)c2)sc1Cl [AFURESERTIB] | > 30 µM (inactive) |

What follows are compounds tested against T1, UMP-CMP kinase (Homo sapiens, UniProt P30085). Conditions: not given.
T1 sequence (P30085 whole entry): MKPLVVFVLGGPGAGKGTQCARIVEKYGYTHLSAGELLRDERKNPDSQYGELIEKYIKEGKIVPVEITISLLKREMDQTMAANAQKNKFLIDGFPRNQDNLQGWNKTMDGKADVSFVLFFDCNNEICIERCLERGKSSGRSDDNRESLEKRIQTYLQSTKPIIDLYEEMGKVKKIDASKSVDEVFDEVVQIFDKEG

| SMILES | Kd |
| --- | --- |
| Cc1cc(-c2cc(O)ccc2Cl)cc2nnc(Nc3ccc(OCCN4CCCC4)cc3)nc12 | > 30 µM (inactive) |
| O=C(Nc1cccc(Cl)c1)Nc1ncc(CCNc2ncnc3ccsc23)s1 [SNS-314] | > 30 µM (inactive) |

What follows are compounds tested against T2, Ephrin type-A receptor 1 (Homo sapiens, UniProt P21709). Conditions: not given.
T2 sequence (P21709 whole entry): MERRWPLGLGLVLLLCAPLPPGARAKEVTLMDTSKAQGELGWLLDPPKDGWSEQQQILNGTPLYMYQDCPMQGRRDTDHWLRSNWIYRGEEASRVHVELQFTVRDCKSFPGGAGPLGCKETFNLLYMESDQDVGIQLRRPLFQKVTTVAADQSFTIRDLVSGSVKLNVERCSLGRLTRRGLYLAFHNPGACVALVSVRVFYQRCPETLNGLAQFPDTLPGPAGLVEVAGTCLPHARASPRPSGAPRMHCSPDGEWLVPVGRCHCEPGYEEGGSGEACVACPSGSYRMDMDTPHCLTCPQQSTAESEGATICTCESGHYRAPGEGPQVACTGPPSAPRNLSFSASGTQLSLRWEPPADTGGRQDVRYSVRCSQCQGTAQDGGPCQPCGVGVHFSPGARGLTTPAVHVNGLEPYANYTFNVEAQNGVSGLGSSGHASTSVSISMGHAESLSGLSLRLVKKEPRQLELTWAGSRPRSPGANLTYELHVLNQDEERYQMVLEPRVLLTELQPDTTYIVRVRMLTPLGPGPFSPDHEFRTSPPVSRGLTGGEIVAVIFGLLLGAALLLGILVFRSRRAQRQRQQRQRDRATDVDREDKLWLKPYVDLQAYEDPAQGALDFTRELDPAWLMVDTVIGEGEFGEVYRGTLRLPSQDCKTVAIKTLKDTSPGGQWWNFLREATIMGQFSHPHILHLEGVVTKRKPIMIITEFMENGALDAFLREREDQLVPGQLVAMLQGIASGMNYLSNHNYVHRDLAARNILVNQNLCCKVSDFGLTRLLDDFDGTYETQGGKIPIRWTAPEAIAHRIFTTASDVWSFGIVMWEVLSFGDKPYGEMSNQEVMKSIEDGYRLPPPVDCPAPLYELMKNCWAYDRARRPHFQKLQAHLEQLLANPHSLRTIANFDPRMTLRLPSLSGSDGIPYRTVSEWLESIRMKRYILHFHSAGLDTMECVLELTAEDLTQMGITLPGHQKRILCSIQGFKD

| SMILES | Kd |
| --- | --- |
| Cc1cc(-c2cc(O)ccc2Cl)cc2nnc(Nc3ccc(OCCN4CCCC4)cc3)nc12 | > 30 µM (inactive) |
| CCN1CCN(Cc2ccc(-c3cc4c(N[C@H](C)c5ccccc5)ncnc4[nH]3)cc2)CC1 [AEE-788] | > 30 µM (inactive) |
| Cn1ncc(Cl)c1-c1cc(C(=O)N[C@H](CN)Cc2cccc(F)c2)sc1Cl [AFURESERTIB] | > 30 µM (inactive) |
| O=C(Nc1cccc(Cl)c1)Nc1ncc(CCNc2ncnc3ccsc23)s1 [SNS-314] | > 30 µM (inactive) |

These compounds were tested against Ephrin type-A receptor 7 (Homo sapiens, UniProt Q15375). Conditions: not given.
Chain of Ephrin type-A receptor 7 (Q15375 whole entry): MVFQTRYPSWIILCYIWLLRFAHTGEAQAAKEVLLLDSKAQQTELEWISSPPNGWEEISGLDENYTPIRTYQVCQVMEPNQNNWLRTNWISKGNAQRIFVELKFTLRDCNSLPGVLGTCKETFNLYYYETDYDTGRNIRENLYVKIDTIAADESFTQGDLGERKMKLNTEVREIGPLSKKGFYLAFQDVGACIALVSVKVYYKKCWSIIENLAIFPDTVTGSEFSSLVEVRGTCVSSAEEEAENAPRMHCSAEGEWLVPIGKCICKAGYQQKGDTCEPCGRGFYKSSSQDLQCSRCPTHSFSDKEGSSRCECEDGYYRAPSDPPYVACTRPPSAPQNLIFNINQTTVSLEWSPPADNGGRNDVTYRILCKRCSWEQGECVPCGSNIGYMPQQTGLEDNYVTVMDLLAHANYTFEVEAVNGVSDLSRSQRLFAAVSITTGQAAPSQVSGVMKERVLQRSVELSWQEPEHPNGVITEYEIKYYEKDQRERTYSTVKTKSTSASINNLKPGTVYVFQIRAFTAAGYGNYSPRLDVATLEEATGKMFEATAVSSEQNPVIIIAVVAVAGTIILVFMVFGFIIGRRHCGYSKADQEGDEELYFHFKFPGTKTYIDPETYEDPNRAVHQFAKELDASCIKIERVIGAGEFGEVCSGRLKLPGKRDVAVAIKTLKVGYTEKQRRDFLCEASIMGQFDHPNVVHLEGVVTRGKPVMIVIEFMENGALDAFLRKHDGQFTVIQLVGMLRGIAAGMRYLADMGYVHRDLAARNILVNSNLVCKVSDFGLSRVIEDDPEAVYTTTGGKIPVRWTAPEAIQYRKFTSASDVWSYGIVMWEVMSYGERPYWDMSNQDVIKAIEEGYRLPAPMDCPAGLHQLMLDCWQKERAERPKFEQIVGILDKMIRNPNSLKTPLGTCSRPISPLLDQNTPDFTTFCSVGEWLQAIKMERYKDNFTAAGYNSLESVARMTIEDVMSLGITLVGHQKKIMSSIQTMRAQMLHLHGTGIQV

| SMILES | Kd |
| --- | --- |
| Cc1cc(-c2cc(O)ccc2Cl)cc2nnc(Nc3ccc(OCCN4CCCC4)cc3)nc12 | > 30 µM (inactive) |
| CCN1CCN(Cc2ccc(-c3cc4c(N[C@H](C)c5ccccc5)ncnc4[nH]3)cc2)CC1 [AEE-788] | > 30 µM (inactive) |
| Cn1ncc(Cl)c1-c1cc(C(=O)N[C@H](CN)Cc2cccc(F)c2)sc1Cl [AFURESERTIB] | > 30 µM (inactive) |
| O=C(Nc1cccc(Cl)c1)Nc1ncc(CCNc2ncnc3ccsc23)s1 [SNS-314] | > 30 µM (inactive) |

Each compound was assayed against T3, Inhibitor of nuclear factor kappa-B kinase subunit epsilon (Homo sapiens, UniProt Q14164). Conditions: not given.
T3 sequence (Q14164 whole entry): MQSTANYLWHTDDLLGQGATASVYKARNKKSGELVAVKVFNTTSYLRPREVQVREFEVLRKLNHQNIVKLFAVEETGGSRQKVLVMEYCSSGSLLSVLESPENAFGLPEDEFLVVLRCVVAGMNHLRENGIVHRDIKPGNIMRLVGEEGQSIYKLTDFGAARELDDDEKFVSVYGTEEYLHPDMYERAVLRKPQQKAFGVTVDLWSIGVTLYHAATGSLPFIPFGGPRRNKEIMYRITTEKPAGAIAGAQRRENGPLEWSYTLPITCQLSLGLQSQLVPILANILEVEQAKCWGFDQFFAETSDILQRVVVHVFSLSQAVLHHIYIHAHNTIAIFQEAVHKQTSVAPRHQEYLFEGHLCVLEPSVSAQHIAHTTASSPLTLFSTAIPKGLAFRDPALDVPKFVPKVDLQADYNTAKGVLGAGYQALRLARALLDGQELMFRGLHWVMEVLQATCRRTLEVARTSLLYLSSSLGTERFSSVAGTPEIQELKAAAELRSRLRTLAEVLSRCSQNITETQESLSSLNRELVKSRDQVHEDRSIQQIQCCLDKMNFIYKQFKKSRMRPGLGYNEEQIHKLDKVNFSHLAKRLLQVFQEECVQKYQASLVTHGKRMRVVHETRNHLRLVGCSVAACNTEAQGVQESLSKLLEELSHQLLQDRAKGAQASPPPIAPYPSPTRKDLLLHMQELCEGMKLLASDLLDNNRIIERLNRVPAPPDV

| SMILES | Kd |
| --- | --- |
| Cc1cc(-c2cc(O)ccc2Cl)cc2nnc(Nc3ccc(OCCN4CCCC4)cc3)nc12 | > 30 µM (inactive) |
| CCN1CCN(Cc2ccc(-c3cc4c(N[C@H](C)c5ccccc5)ncnc4[nH]3)cc2)CC1 [AEE-788] | > 30 µM (inactive) |

What follows are compounds tested against Hepatocyte growth factor receptor (Homo sapiens, UniProt P08581). Conditions: not given.

| SMILES | Kd |
| --- | --- |
| Cc1cc(-c2cc(O)ccc2Cl)cc2nnc(Nc3ccc(OCCN4CCCC4)cc3)nc12 | > 30 µM (inactive) |
| CCN1CCN(Cc2ccc(-c3cc4c(N[C@H](C)c5ccccc5)ncnc4[nH]3)cc2)CC1 [AEE-788] | > 30 µM (inactive) |

Each compound was assayed against High affinity nerve growth factor receptor (Homo sapiens, UniProt P04629). Conditions: not given.
Chain of High affinity nerve growth factor receptor (P04629 whole entry): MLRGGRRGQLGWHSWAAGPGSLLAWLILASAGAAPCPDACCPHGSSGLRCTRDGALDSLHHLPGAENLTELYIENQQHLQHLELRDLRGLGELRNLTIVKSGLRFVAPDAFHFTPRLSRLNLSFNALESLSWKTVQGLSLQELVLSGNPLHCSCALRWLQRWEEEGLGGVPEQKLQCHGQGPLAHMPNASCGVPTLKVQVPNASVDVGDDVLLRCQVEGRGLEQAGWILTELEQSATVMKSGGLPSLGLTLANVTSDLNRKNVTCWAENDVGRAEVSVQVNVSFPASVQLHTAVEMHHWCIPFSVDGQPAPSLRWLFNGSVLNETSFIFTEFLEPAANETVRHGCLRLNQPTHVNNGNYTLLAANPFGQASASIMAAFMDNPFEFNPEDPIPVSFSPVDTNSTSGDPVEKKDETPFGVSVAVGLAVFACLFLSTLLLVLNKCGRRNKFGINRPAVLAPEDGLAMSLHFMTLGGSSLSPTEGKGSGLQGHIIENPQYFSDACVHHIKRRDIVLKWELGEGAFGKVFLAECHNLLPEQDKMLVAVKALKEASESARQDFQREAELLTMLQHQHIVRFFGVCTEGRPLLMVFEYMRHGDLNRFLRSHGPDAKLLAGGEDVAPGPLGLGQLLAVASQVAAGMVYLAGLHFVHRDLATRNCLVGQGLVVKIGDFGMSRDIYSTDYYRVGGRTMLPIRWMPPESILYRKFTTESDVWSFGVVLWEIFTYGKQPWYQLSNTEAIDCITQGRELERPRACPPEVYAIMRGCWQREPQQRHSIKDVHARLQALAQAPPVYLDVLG

| SMILES | Kd |
| --- | --- |
| Cc1cc(-c2cc(O)ccc2Cl)cc2nnc(Nc3ccc(OCCN4CCCC4)cc3)nc12 | > 30 µM (inactive) |
| CCN1CCN(Cc2ccc(-c3cc4c(N[C@H](C)c5ccccc5)ncnc4[nH]3)cc2)CC1 [AEE-788] | > 30 µM (inactive) |
| Cn1ncc(Cl)c1-c1cc(C(=O)N[C@H](CN)Cc2cccc(F)c2)sc1Cl [AFURESERTIB] | > 30 µM (inactive) |

These compounds were tested against Serine/threonine-protein kinase PAK 6 (Homo sapiens, UniProt Q9NQU5). Conditions: not given.
Chain of Serine/threonine-protein kinase PAK 6 (Q9NQU5 whole entry): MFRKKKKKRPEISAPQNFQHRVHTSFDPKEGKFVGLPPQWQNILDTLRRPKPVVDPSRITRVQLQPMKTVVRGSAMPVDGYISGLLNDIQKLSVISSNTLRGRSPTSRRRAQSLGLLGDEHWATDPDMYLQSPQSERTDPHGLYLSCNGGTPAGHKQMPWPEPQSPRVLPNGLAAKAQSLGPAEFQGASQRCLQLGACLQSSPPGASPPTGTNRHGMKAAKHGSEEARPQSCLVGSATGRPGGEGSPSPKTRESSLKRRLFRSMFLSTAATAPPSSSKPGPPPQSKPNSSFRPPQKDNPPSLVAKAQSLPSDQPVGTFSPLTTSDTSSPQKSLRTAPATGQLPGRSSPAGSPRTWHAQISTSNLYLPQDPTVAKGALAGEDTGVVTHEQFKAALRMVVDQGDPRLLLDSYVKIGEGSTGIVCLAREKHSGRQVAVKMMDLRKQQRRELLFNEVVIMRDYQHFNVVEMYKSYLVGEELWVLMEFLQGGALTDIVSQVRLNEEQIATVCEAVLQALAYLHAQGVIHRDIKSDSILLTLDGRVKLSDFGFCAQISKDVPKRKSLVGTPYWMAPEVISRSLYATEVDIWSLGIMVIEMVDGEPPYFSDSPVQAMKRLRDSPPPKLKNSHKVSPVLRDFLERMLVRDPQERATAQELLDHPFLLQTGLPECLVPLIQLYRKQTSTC

| SMILES | Kd |
| --- | --- |
| Cc1cc(-c2cc(O)ccc2Cl)cc2nnc(Nc3ccc(OCCN4CCCC4)cc3)nc12 | > 30 µM (inactive) |
| CCN1CCN(Cc2ccc(-c3cc4c(N[C@H](C)c5ccccc5)ncnc4[nH]3)cc2)CC1 [AEE-788] | > 30 µM (inactive) |
| Cn1ncc(Cl)c1-c1cc(C(=O)N[C@H](CN)Cc2cccc(F)c2)sc1Cl [AFURESERTIB] | > 30 µM (inactive) |

Each compound was assayed against Membrane-associated progesterone receptor component 1 (Homo sapiens, UniProt O00264). Conditions: not given.
Chain of Membrane-associated progesterone receptor component 1 (O00264 whole entry): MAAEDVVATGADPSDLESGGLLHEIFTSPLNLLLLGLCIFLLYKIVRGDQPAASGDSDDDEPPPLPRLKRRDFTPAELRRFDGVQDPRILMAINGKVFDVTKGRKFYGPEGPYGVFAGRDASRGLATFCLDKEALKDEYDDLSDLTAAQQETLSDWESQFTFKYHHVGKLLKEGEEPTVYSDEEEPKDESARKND

| SMILES | Kd |
| --- | --- |
| Cc1cc(-c2cc(O)ccc2Cl)cc2nnc(Nc3ccc(OCCN4CCCC4)cc3)nc12 | > 30 µM (inactive) |
| Cn1ncc(Cl)c1-c1cc(C(=O)N[C@H](CN)Cc2cccc(F)c2)sc1Cl [AFURESERTIB] | > 30 µM (inactive) |
| O=C(Nc1cccc(Cl)c1)Nc1ncc(CCNc2ncnc3ccsc23)s1 [SNS-314] | > 30 µM (inactive) |

These compounds were tested against Serine/threonine-protein kinase pim-2 (Homo sapiens, UniProt Q9P1W9). Conditions: not given.
Chain of Serine/threonine-protein kinase pim-2 (Q9P1W9 whole entry): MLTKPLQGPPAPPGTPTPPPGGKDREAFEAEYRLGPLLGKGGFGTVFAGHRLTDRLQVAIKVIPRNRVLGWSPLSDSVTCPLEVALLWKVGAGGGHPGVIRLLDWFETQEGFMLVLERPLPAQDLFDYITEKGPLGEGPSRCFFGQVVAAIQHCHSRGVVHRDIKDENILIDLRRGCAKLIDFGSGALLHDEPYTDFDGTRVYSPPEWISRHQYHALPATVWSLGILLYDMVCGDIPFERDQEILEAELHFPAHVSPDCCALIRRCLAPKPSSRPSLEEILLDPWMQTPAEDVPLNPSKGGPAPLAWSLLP

| SMILES | Kd |
| --- | --- |
| Cc1cc(-c2cc(O)ccc2Cl)cc2nnc(Nc3ccc(OCCN4CCCC4)cc3)nc12 | > 30 µM (inactive) |
| CCN1CCN(Cc2ccc(-c3cc4c(N[C@H](C)c5ccccc5)ncnc4[nH]3)cc2)CC1 [AEE-788] | > 30 µM (inactive) |
| Cn1ncc(Cl)c1-c1cc(C(=O)N[C@H](CN)Cc2cccc(F)c2)sc1Cl [AFURESERTIB] | > 30 µM (inactive) |

What follows are compounds tested against Serine/threonine-protein kinase 38-like (Homo sapiens, UniProt Q9Y2H1). Conditions: not given.
Chain of Serine/threonine-protein kinase 38-like (Q9Y2H1 whole entry): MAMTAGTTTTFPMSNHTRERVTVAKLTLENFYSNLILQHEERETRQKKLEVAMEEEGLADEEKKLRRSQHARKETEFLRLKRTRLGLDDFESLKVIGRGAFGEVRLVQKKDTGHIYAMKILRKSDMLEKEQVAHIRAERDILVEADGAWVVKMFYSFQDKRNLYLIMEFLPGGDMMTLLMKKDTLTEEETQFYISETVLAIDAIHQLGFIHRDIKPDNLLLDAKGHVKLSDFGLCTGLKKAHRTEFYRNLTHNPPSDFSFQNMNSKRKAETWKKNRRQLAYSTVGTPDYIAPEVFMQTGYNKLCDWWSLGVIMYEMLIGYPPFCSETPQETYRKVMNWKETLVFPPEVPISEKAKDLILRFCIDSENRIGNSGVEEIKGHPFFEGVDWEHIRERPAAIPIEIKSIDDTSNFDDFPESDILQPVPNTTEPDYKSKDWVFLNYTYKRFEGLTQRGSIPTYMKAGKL

| SMILES | Kd |
| --- | --- |
| Cc1cc(-c2cc(O)ccc2Cl)cc2nnc(Nc3ccc(OCCN4CCCC4)cc3)nc12 | > 30 µM (inactive) |
| CCN1CCN(Cc2ccc(-c3cc4c(N[C@H](C)c5ccccc5)ncnc4[nH]3)cc2)CC1 [AEE-788] | > 30 µM (inactive) |

Each compound was assayed against Dual specificity testis-specific protein kinase 1 (Homo sapiens, UniProt Q15569). Conditions: not given.
Chain of Dual specificity testis-specific protein kinase 1 (Q15569 whole entry): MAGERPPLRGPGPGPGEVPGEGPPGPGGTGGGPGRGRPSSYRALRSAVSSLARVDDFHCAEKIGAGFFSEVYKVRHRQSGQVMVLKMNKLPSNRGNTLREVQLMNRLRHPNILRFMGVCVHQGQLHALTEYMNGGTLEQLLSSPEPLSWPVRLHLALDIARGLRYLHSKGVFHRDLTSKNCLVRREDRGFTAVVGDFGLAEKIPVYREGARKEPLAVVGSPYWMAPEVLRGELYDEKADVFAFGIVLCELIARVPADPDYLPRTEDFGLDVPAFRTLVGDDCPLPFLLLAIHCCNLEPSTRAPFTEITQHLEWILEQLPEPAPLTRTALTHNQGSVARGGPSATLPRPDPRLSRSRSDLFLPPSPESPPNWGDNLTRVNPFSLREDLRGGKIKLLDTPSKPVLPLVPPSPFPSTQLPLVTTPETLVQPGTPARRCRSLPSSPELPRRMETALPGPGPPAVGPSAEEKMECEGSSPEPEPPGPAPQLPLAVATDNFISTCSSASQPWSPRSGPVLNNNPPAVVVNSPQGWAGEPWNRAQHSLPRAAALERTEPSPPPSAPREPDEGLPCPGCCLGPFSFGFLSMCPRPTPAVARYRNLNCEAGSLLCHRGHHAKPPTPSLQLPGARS

| SMILES | Kd |
| --- | --- |
| Cc1cc(-c2cc(O)ccc2Cl)cc2nnc(Nc3ccc(OCCN4CCCC4)cc3)nc12 | > 30 µM (inactive) |
| CCN1CCN(Cc2ccc(-c3cc4c(N[C@H](C)c5ccccc5)ncnc4[nH]3)cc2)CC1 [AEE-788] | > 30 µM (inactive) |
| Cn1ncc(Cl)c1-c1cc(C(=O)N[C@H](CN)Cc2cccc(F)c2)sc1Cl [AFURESERTIB] | > 30 µM (inactive) |

From ChEMBL document CHEMBL3991601, “The target landscape of clinical kinase drugs” (Science, 2017)
